Biological target: T1, human NEP (Homo sapiens, UniProt P08473)
T1 construct: purchased R&D Systems, Minneapolis, Minn; 1182-ZN
Test: In vitro enzyme inhibition assay at human NEP (fluorogenic peptide substrate)
Type: biochemical
Details: recombinant human NEP; substrate Mca-D-Arg-Arg-Leu-Dap-(Dnp)-OH 10 μM; 37° C.; values given as ranges
Description: The inhibitory activities of compounds at human and rat neprilysin (EC 3.4.24.11; NEP) and human angiotensin converting enzyme (ACE) were determined using in vitro assays as described below.
Recombinant human NEP and recombinant human ACE were obtained commercially (R&D Systems, Minneapolis, Minn., catalog numbers 1182-ZN and 929-ZN, respectively). The fluorogenic peptide substrate Mca-D-Arg-Arg-Leu-Dap-(Dnp)-OH (Medeiros et al. (1997) Braz. J. Med. Biol. Res. 30:1157-62; Anaspec, San Jose, Calif.) and Abz-Phe-Arg-Lys(Dnp)-Pro-OH (Araujo et al. (2000) Biochemistry 39:8519-8525; Bachem, Torrance, Calif.) were used in the NEP and ACE assays respectively.
The assays were performed in 384-well white opaque plates at 37° C. using the fluorogenic peptide substrates at a concentration of 10 μM in Assay Buffer (NEP: 50 mM HEPES, pH 7.5, 100 mM NaCl, 0.01% polyethylene glycol sorbitan monolaurate (Tween-20), 10 μM ZnSO4; ACE: 50 mM HEPES, pH 7.5, 100 mM NaCl, 0.01% Tween-20, 1 μM ZnSO4).
Test compounds were assayed over the range of concentrations from 10 μM to 20 pM. Test compounds were added to the enzymes and incubated for 30 minute at 37° C. prior to initiating the reaction by the addition of substrate. Reactions were terminated after 20 minutes of incubation at 37° C. by the addition of glacial acetic acid to a final concentration of 3.6% (v/v).
Plates were read on a fluorometer with excitation and emission wavelengths set to 320 nm and 405 nm, respectively Inhibition constants were obtained by nonlinear regression of the data using the equation (GraphPad Software, Inc., San Diego, Calif.): v=v0/[1+(I/K′)] where v is the reaction rate, v0 is the uninhibited reaction rate, I is the inhibitor concentration and K′ is the apparent inhibition constant.
Compounds of the invention were tested in this assay and found to have pKi values at human NEP as follows.

T1 sequence (P08473 whole entry): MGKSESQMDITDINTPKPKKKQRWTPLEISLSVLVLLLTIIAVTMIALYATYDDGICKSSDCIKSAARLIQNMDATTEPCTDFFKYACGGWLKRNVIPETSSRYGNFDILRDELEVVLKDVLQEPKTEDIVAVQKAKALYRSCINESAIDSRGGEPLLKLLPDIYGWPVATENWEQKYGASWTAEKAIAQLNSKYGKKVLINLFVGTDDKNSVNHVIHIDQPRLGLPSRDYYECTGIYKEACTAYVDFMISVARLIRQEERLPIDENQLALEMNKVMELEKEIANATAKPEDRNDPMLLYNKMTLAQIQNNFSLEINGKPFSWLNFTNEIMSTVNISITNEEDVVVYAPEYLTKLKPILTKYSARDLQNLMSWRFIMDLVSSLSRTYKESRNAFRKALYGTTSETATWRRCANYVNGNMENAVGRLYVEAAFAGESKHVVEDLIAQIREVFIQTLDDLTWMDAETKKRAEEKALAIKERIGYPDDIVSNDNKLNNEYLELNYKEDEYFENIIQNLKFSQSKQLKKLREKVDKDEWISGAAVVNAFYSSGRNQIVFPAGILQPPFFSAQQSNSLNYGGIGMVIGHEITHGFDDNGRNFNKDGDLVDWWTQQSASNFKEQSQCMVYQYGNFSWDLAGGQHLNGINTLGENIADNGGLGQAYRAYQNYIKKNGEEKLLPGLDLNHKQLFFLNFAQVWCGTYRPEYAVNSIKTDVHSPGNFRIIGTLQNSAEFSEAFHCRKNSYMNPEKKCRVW

`COCCN(C)C(=O)c1cc(C(=O)N[C@H](Cc2ccccc2C(F)(F)F)[C@@H](O)C(=O)O)n[nH]1` [Example 6-9] was tested, and the “pKi values at human NEP” value was 7.0-7.9.

Same assay, conditions: recombinant human NEP; substrate Mca-D-Arg-Arg-Leu-Dap-(Dnp)-OH 10 μM; 37° C.; values given as ranges; read-out: pKi values at human NEP (converted)

`CCCCc1cc(C(=O)N[C@H](Cc2ccccc2Cl)[C@@H](O)C(=O)O)nn1Cc1c(F)c(F)c(OC)c(F)c1F` [Example 2-69, (2R,3R)-3-{[5-Butyl-1-(2,3,5,6-tetrafluoro-4-methoxy-benzyl)-1H-pyrazole-3-carbonyl]-amino}-4-(2-chloro-phenyl)-2-hydroxy-butyric acid] and `COc1c(F)c(F)c(Cn2nc(C(=O)N[C@H](Cc3ccccc3Cl)[C@@H](O)C(=O)O)cc2C(C)=O)c(F)c1F` [Example 2-71, (2R,3R)-3-{[5-Acetyl-1-(2,3,5,6-tetrafluoro-4-methoxy-benzyl)-1H-pyrazole-3-carbonyl]-amino}-4-(2-chloro-phenyl)-2-hydroxy-butyric acid] cannot be ordered by Ki: at most 1 nM for the first, at most 1 nM for the second.

First: COc1ccc(Cn2nc(C(=O)N[C@H](Cc3ccccc3Cl)[C@@H](O)C(=O)O)cc2C(C)=O)cc1 [Example 2-70, (2R,3R)-3-{[5-Acetyl-1-(4-methoxy-benzyl)-1H-pyrazole-3-carbonyl]-amino}-4-(2-chloro-phenyl)-2-hydroxy-butyric acid]
Second: COc1ccc(Cn2nc(C(=O)N[C@H](Cc3ccccc3Cl)[C@@H](O)C(=O)O)cc2C(=O)N(C)C)cc1 [Example 2-73, (2R,3R)-4-(2-Chloro-phenyl)-3-{[5-dimethylcarbamoyl-1-(4-methoxy-benzyl)-1H-pyrazole-3-carbonyl]-amino}-2-hydroxy-butyric acid]
The Ki of the first is lower: 1.26 to 10 nM for the first, 12.6 to 100 nM for the second.

First: CN(C)C(=O)c1cc(C(=O)N[C@H](Cc2ccccc2Cl)[C@@H](O)C(=O)O)nn1Cc1ccc(F)cc1 [Example 2-72, (2R,3R)-4-(2-Chloro-phenyl)-3-{[5-dimethylcarbamoyl-1-(4-fluoro-benzyl)-1H-pyrazole-3-carbonyl]-amino}-2-hydroxy-butyric acid]
Second: O=C(N[C@H](Cc1ccccc1C(F)(F)F)[C@@H](O)C(=O)O)c1cc(C(=O)O)n(Cc2ccc(F)cc2)n1 [Example 6-1, 5-[(1R,2R)-2-Carboxy-2-hydroxy-1-(2-trifluoromethyl-benzyl)-ethylcarbamoyl]-2-(4-fluoro-benzyl)-2H-pyrazole-3-carboxylic acid]
The Ki of the first is higher: 12.6 to 100 nM for the first, 1.26 to 10 nM for the second.

First: O=C(O)Cn1nc(C(=O)N[C@H](Cc2ccccc2Cl)[C@@H](O)C(=O)O)cc1-c1ccc(Cl)cc1Cl [Example 2-74, (2R,3R)-3-{[1-Carboxymethyl-5-(2,4-dichlorophenyl)-1H-pyrazole-3-carbonyl]-amino}-4-(2-chloro-phenyl)-2-hydroxy-butyric acid]
Second: O=C(N[C@H](Cc1ccccc1Cl)[C@@H](O)C(=O)O)c1cc(-c2ccc(Cl)cc2Cl)n[nH]1 [Example 3-8, (2R,3R)-4-(2-Chloro-phenyl)-3-{[5-(2,4-dichloro-phenyl)-2H-pyrazole-3-carbonyl]-amino}-2-hydroxy-butyric acid]
The Ki of the first is higher: 12.6 to 100 nM for the first, 1.26 to 10 nM for the second.

`CCCCc1cc(C(=O)N[C@H](Cc2ccccc2Cl)[C@@H](O)C(=O)O)[nH]n1` [Example 3-1, (2R,3R)-3-[(5-Butyl-2H-pyrazole-3-carbonyl)-amino]-4-(2-chloro-phenyl)-2-hydroxy-butyric acid] and `CC(=O)c1cc(C(=O)N[C@H](Cc2ccccc2Cl)[C@@H](O)C(=O)O)[nH]n1` [Example 3-5, (2R,3R)-3-[(5-Acetyl-2H-pyrazole-3-carbonyl)-amino]-4-(2-chloro-phenyl)-2-hydroxy-butyric acid] fall in the same range of Ki: 12.6 to 100 nM for the first, 12.6 to 100 nM for the second.

`O=C(N[C@H](Cc1ccccc1Cl)[C@@H](O)C(=O)O)c1cc(-c2ccccc2C(F)(F)F)n[nH]1` [Example 3-2, (2R,3R)-4-(2-Chloro-phenyl)-2-hydroxy-3-{[5-(2-trifluoromethyl-phenyl)-2H-pyrazole-3-carbonyl]-amino}-butyric acid] and `COc1ccccc1-c1cc(C(=O)N[C@H](Cc2ccccc2Cl)[C@@H](O)C(=O)O)[nH]n1` [Example 3-4, (2R,3R)-4-(2-Chloro-phenyl)-2-hydroxy-3-{[5-(2-methoxy-phenyl)-2H-pyrazole-3-carbonyl]-amino}-butyric acid] fall in the same range of Ki: 12.6 to 100 nM for the first, 12.6 to 100 nM for the second.

First: O=C(N[C@H](Cc1ccccc1Cl)[C@@H](O)C(=O)O)c1cc(-c2ccc(F)cc2)n[nH]1 [Example 3-3, (2R,3R)-4-(2-Chloro-phenyl)-3-{[5-(4-fluoro-phenyl)-2H-pyrazole-3-carbonyl]-amino}-2-hydroxy-butyric acid]
Second: O=C(N[C@H](Cc1ccccc1Cl)[C@@H](O)C(=O)O)c1cc(-c2cc(Cl)ccc2Cl)n[nH]1 [Example 3-7, (2R,3R)-4-(2-Chloro-phenyl)-3-{[5-(2,5-dichloro-phenyl)-2H-pyrazole-3-carbonyl]-amino}-2-hydroxy-butyric acid]
The Ki of the first is higher: 12.6 to 100 nM for the first, 1.26 to 10 nM for the second.

First: COc1c(F)c(F)c(Cn2nc(C(C)=O)cc2C(=O)N[C@H](Cc2ccccc2Cl)[C@@H](O)C(=O)O)c(F)c1F [Example 3-6, (2R,3R)-3-{[5-Acetyl-2-(2,3,5,6-tetrafluoro-4-methoxy-benzyl)-2H-pyrazole-3-carbonyl]-amino}-4-(2-chloro-phenyl)-2-hydroxy-butyric acid]
Second: COc1ccc(Cn2cc(C(=O)N[C@H](Cc3ccccc3Cl)[C@@H](O)C(=O)O)cn2)c(F)c1F [Example 4-1, (2R,3R)-4-(2-Chloro-phenyl)-3-{[1-(2,3-difluoro-4-methoxy-benzyl)-1H-pyrazole-4-carbonyl]-amino}-2-hydroxy-butyric acid]
The Ki of the first is lower: at most 1 nM for the first, 1.26 to 10 nM for the second.

`COc1ccc(Cn2nc(C(=O)N[C@H](Cc3ccccc3C(F)(F)F)[C@@H](O)C(=O)O)cc2C(=O)O)cc1` [Example 5, 5-[(1R,2R)-2-Carboxy-2-hydroxy-1-(2-trifluoromethylbenzyl)-ethylcarbamoyl]-2-(4-methoxybenzyl)-2H-pyrazole-3-carboxylic Acid] and `O=C(N[C@H](Cc1ccccc1C(F)(F)F)[C@@H](O)C(=O)O)c1cc(C(=O)O)[nH]n1` [Example 6-2, 5-[(1R,2R)-2-Carboxy-2-hydroxy-1-(2-trifluoromethyl-benzyl)-ethylcarbamoyl]-2H-pyrazole-3-carboxylic acid] fall in the same range of Ki: 1.26 to 10 nM for the first, 1.26 to 10 nM for the second.

First: CC(C)CN(C)C(=O)c1cc(C(=O)N[C@H](Cc2ccccc2C(F)(F)F)[C@@H](O)C(=O)O)n[nH]1 [Example 6-3, (2R,3R)-2-Hydroxy-3-{[5-(isobutyl-methyl-carbamoyl)-1H-pyrazole-3-carbonyl]-amino}-4-(2-trifluoromethyl-phenyl)-butyric acid]
Second: CN(C)C(=O)c1cc(C(=O)N[C@H](Cc2ccccc2C(F)(F)F)[C@@H](O)C(=O)O)n[nH]1 [Example 6-7, (2R,3R)-3-[(5-Dimethylcarbamoyl-1H-pyrazole-3-carbonyl)-amino]-2-hydroxy-4-(2-trifluoromethyl-phenyl)-butyric acid]
The Ki of the first is higher: 12.6 to 100 nM for the first, 1.26 to 10 nM for the second.

`O=C(N[C@H](Cc1ccccc1C(F)(F)F)[C@@H](O)C(=O)O)c1cc(C(=O)NCCc2c[nH]cn2)[nH]n1` [Example 6-4, (2R,3R)-2-Hydroxy-3-({5-[2-(1H-imidazol-4-yl)-ethylcarbamoyl]-1H-pyrazole-3-carbonyl}-amino)-4-(2-trifluoromethyl-phenyl)-butyric acid] and `CNC(=O)c1cc(C(=O)N[C@H](Cc2ccccc2C(F)(F)F)[C@@H](O)C(=O)O)n[nH]1` [Example 6-5, (2R,3R)-2-Hydroxy-3-[(5-methylcarbamoyl-1H-pyrazole-3-carbonyl)-amino]-4-(2-trifluoromethyl-phenyl)-butyric acid] fall in the same range of Ki: 12.6 to 100 nM for the first, 12.6 to 100 nM for the second.

First: O=C(N[C@H](Cc1ccccc1C(F)(F)F)[C@@H](O)C(=O)O)c1cc(C(=O)NC2CC2)[nH]n1 [Example 6-6, (2R,3R)-3-[(5-Cyclopropylcarbamoyl-1H-pyrazole-3-carbonyl)-amino]-2-hydroxy-4-(2-trifluoromethyl-phenyl)-butyric acid]
Second: O=C(N[C@H](Cc1ccccc1C(F)(F)F)[C@@H](O)C(=O)O)c1cc(C(=O)N2CC[C@@H](O)C2)[nH]n1 [Example 6-10, (2R,3R)-2-Hydroxy-3-{[5-((R)-3-hydroxy-pyrrolidine-1-carbonyl)-1H-pyrazole-3-carbonyl]-amino}-4-(2-trifluoromethyl-phenyl)-butyric acid]
The Ki of the first is higher: 12.6 to 100 nM for the first, 1.26 to 10 nM for the second.

Work on `O=C(N[C@H](Cc1ccccc1C(F)(F)F)[C@@H](O)C(=O)O)c1cc(C(=O)N2CCC(O)CC2)[nH]n1` [Example 6-8, (2R,3R)-2-Hydroxy-3-{[5-(4-hydroxy-piperidine-1-carbonyl)-1H-pyrazole-3-carbonyl]-amino}-4-(2-trifluoromethyl-phenyl)-butyric acid] yielded a Ki of 12.6 to 100 nM.

— patent US8993752B2, “Neprilysin inhibitors” (Theravance Biopharma R&D IP, LLC, priority 2011, dated 2015)
